The source made the active and inactive calls. The rule behind the calls is not given here.
Tests used:
A549 [1] = experiment: Cytotoxicity against human A549 cells after 48 hrs by trypan blue exclusion assay; type: functional, cell-based; settings: A549, 48 h
A549 [2] = experiment: Cytotoxicity against human A549 cells after 48 hrs by MTT assay; type: functional, cell-based; settings: A549, 48 h
A549 [3] = experiment: Cytotoxicity against human A549 cells after 48 hrs by LDH release assay; type: functional, cell-based; settings: A549, 48 h
HeLa [4] = experiment: Cytotoxicity against human HeLa cells after 48 hrs by trypan blue exclusion assay; type: functional, cell-based
HeLa [5] = experiment: Cytotoxicity against human HeLa cells after 48 hrs by MTT assay; type: functional, cell-based
HeLa [6] = experiment: Cytotoxicity against human HeLa cells after 48 hrs by LDH release assay; type: functional, cell-based
MCF7 [7] = experiment: Cytotoxicity against human MCF7 cells after 48 hrs by trypan blue exclusion assay; type: functional, cell-based; settings: MCF7, 48 h
MCF7 [8] = experiment: Cytotoxicity against human MCF7 cells after 48 hrs by MTT assay; type: functional, cell-based; settings: MCF7, 48 h
MCF7 [9] = experiment: Cytotoxicity against human MCF7 cells after 48 hrs by LDH release assay; type: functional, cell-based; settings: MCF7, 48 h
NIH3T3 [10] = experiment: Cytotoxicity against mouse NIH/3T3 cells after 48 hrs by trypan blue exclusion assay; type: cell-based; settings: NIH3T3, 48 h
NIH3T3 [11] = experiment: Cytotoxicity against mouse NIH/3T3 cells after 48 hrs by MTT assay; type: cell-based; settings: NIH3T3, 48 h
NIH3T3 [12] = experiment: Cytotoxicity against mouse NIH/3T3 cells after 48 hrs by LDH release assay; type: cell-based; settings: NIH3T3, 48 h
A549 [13] = experiment: Induction of apoptosis in human A549 cells assessed as formation of apoptotic bodies after 12 to 15 hrs by flow cytometric method; type: functional, cell-based
A549 [14] = experiment: Induction of apoptosis in human A549 cells assessed as cell condensation after 12 to 15 hrs by flow cytometric method; type: functional, cell-based
A549 [15] = experiment: Cell cycle arrest in human A549 cells assessed as accumulation at sub-G1 phase after 16 hrs by propidium iodide staining-based flow cytometric method (reference value: 0.69%); type: functional
A549 [16] = experiment: Cell cycle arrest in human A549 cells assessed as accumulation at G0/G1 phase after 16 hrs by propidium iodide staining-based flow cytometric method (reference value: 70.8%); type: functional
A549 [17] = experiment: Cell cycle arrest in human A549 cells assessed as accumulation at S phase after 16 hrs by propidium iodide staining-based flow cytometric method (reference value: 24.8%); type: functional
A549 [18] = experiment: Cell cycle arrest in human A549 cells assessed as accumulation at G2/M phase after 16 hrs by propidium iodide staining-based flow cytometric method (reference value: 3.44%); type: functional
A549 [19] = experiment: Induction of apoptosis in human A549 cells assessed as early apoptotic cells after 12 to 15 hrs by annexin-V-FITC/propidium iodide staining-based flow cytometric method (reference value: 1.65%); type: functional
A549 [20] = experiment: Induction of apoptosis in human A549 cells assessed a late apoptotic cells after 12 to 15 hrs by annexin-V-FITC/propidium iodide staining-based flow cytometric method (reference value: 14.3%); type: functional
A549 [21] = experiment: Induction of apoptosis in human A549 cells assessed a necrotic cells after 12 to 15 hrs by annexin-V-FITC/propidium iodide staining-based flow cytometric method (reference value: 10.2%); type: functional
A549 [22] = experiment: Induction of apoptosis in human A549 cells assessed as live cells after 12 to 15 hrs by annexin-V-FITC/propidium iodide staining-based flow cytometric method (reference value: 73.8%); type: functional
A549 [23] = experiment: Inhibition of colony formation of human A549 cells at 25 to 50 uM pretreated for 6 hrs followed by subsequent incubation for 12 days by crystal violet staining-based assay; type: functional, cell-based
A549 [24] = experiment: Inhibition of migration of human A549 cells at 25 uM after 48 hrs by scratch wound assay relative to control; type: functional; settings: A549, 48 h
A549 [25] = experiment: Inhibition of migration of human A549 cells at 50 uM after 48 hrs by scratch wound assay relative to control; type: functional; settings: A549, 48 h
Chorioallantoic membrane [26] = experiment: In vivo angioprotective activity in chicken CAM assessed as inhibition of recombinant VEGF165-induced neovuscularization at 1 mg/ml after 72 hrs; type: functional, Gallus gallus
Chorioallantoic membrane [27] = experiment: Ex vivo angioprotective activity in chicken CAM assessed as inhibition of recombinant VEGF165-induced neovuscularization at 1 mg/ml after 72 hrs; type: functional, tissue-based; settings: Gallus gallus
Chorioallantoic membrane [28] = experiment: In vivo angioprotective activity in chicken CAM assessed as decrease in recombinant VEGF165-induced total vessel length at 1 mg/ml after 72 hrs; type: functional, Gallus gallus; parameters: scale not given: the % may be the effect or the level left
Chorioallantoic membrane [29] = experiment: Ex vivo angioprotective activity in chicken CAM assessed as decrease in recombinant VEGF165-induced total vessel length at 1 mg/ml after 72 hrs; type: functional, tissue-based; parameters: scale not given: the % may be the effect or the level left; settings: Gallus gallus
A549 [30] = experiment: Antitumor activity against human A549 cells xenografted in chicken CAM assessed as reduction in tumor progression at 1 mg/ml measured on day 12 post fertilization by hematoxylin and eosin staining-based assay relative to control; type: functional
A549 [31] = experiment: Antiangiogenic activity in human A549 cells xenografted in chicken CAM assessed as reduction in recombinant VEGF165-induced MVD/HPF at 1 mg/ml measured on day 12 post fertilization by hematoxylin and eosin staining-based assay relative to control; type: functional; parameters: scale not given: the % may be the effect or the level left
A549 [32] = experiment: Antiangiogenic activity in human A549 cells xenografted in chicken CAM assessed as reduction in recombinant VEGF165-induced MVD/HPF measured on day 12 post fertilization by hematoxylin and eosin staining-based assay; type: functional, cell-based
A549 [33] = experiment: Induction of morphological changes in human A549 cells assessed as irregular shape by Giemsa staining-based microscopic method; type: functional, cell-based
A549 [34] = experiment: Induction of morphological changes in human A549 cells assessed as membrane blebbing by Giemsa staining-based microscopic method; type: functional, cell-based
A549 [35] = experiment: Induction of morphological changes in human A549 cells assessed as formation of apoptotic bodies by Giemsa staining-based microscopic method; type: functional, cell-based
Homo sapiens = organism: Homo sapiens; experiment: Induction of endonuclease activity in cytosolic fraction of human A549 cells assessed as increase in DNA lysis zone at 85 uM by SYBR green dye-based agarose gel electrophoresis
A549 [36] = experiment: Downregulation of VEGF expression in human A549 cells by immunoblot method; type: functional, cell-based
[37] = system: Enterobacteria phage lambda; experiment: Induction of lambda phage DNA fragmentation by agarose gel electrophoresis
A549 [38] = experiment: Induction of apoptosis in human A549 cells assessed as early apoptotic cells at IC50 after 12 to 15 hrs by annexin-V-FITC/propidium iodide staining-based flow cytometric method (reference value: 1.65%); type: functional
A549 [39] = experiment: Induction of apoptosis in human A549 cells assessed as late apoptotic cells at IC50 after 12 to 15 hrs by annexin-V-FITC/propidium iodide staining-based flow cytometric method (reference value: 14.3%); type: functional
A549 [40] = experiment: Induction of apoptosis in human A549 cells assessed as necrotic cells at IC50 after 12 to 15 hrs by annexin-V-FITC/propidium iodide staining-based flow cytometric method (reference value: 10.2%); type: functional
A549 [41] = experiment: Induction of apoptosis in human A549 cells assessed as live cells at IC50 after 12 to 15 hrs by annexin-V-FITC/propidium iodide staining-based flow cytometric method (reference value: 73.8%); type: functional
A549 [42] = experiment: Induction of apoptosis in human A549 cells assessed as caspase-3 activation by immunoblot method; type: functional, cell-based
A549 [43] = experiment: Cell cycle arrest in human A549 cells assessed as accumulation at sub-G1 phase at IC50 after 16 hrs by propidium iodide staining-based flow cytometric method (reference value: 0.69%); type: functional
A549 [44] = experiment: Cell cycle arrest in human A549 cells assessed as accumulation at G0/G1 phase at IC50 after 16 hrs by propidium iodide staining-based flow cytometric method (reference value: 70.8%); type: functional
A549 [45] = experiment: Cell cycle arrest in human A549 cells assessed as accumulation at S phase at IC50 after 16 hrs by propidium iodide staining-based flow cytometric method (reference value: 24.8%); type: functional
A549 [46] = experiment: Cell cycle arrest in human A549 cells assessed as accumulation at G2/M phase at IC50 after 16 hrs by propidium iodide staining-based flow cytometric method (reference value: 3.44%); type: functional
A549 [47] = experiment: Cell cycle arrest in human A549 cells assessed as decrease in cell levels at G2/M phase at IC50 after 24 to 48 hrs by propidium iodide staining-based flow cytometric method; type: functional
A549 [48] = experiment: Cell cycle arrest in human A549 cells assessed as increase in accumulation at sub-G0 phase at IC50 after 48 hrs by propidium iodide staining-based flow cytometric method; type: functional

O=C(COc1ccc(C(=O)c2ccccc2)cc1)NNC(=O)c1ccc(=O)oc1
IC50 (A549 [1]): 96.7 µM | IC50 (A549 [2]): 98.8 µM | IC50 (A549 [3]): 90.9 µM | IC50 (HeLa [4]): 89.2 µM | IC50 (HeLa [5]): 99.1 µM | IC50 (HeLa [6]): 96.1 µM | IC50 (MCF7 [7]): 92.9 µM | IC50 (MCF7 [8]): 93.2 µM | IC50 (MCF7 [9]): 61.1 µM | IC50 (NIH3T3 [10]): 84.3 µM | IC50 (NIH3T3 [11]): 87.3 µM | IC50 (NIH3T3 [12]): 88.2 µM

CC[C@@]1(O)C(=O)OCc2c1cc1n(c2=O)Cc2cc3ccccc3nc2-1 [CAMPTOTHECIN]
Activity (A549 [13]): Active | Activity (A549 [14]): Active | Activity (A549 [15]): 19% | Activity (A549 [16]): 59.4% | Activity (A549 [17]): 19.2% | Activity (A549 [18]): 2.43% | Activity (A549 [19]): 2.16% | Activity (A549 [20]): 23.6% | Activity (A549 [21]): 9.12% | Activity (A549 [22]): 65.1%

Cc1ccc(C(=O)c2cc(F)c(OCC(=O)NNC(=O)c3cn(C)cn3)c(Cl)c2)cc1
IC50 (A549 [1]): 9.6 µM | IC50 (A549 [2]): 8.8 µM | IC50 (A549 [3]): 9.1 µM | IC50 (HeLa [4]): 10.2 µM | IC50 (HeLa [5]): 9.9 µM | IC50 (HeLa [6]): 10.4 µM | IC50 (MCF7 [7]): 9.5 µM | IC50 (MCF7 [8]): 9.8 µM | IC50 (MCF7 [9]): 9.4 µM | IC50 (NIH3T3 [10]): 93.8 µM | IC50 (NIH3T3 [11]): 94.2 µM | IC50 (NIH3T3 [12]): 94.9 µM | inhibition (A549 [23]): Active | inhibition at 25 µM (A549 [24]): 15.6% | inhibition at 50 µM (A549 [25]): 78.8% | inhibition (INH) (Chorioallantoic membrane [26]): 24% | inhibition (Chorioallantoic membrane [27]): 26% | Activity (Chorioallantoic membrane [28]): 85% | Activity (Chorioallantoic membrane [29]): 85% | fold change (FC) (A549 [30]): 1.7 | Activity (A549 [31]): 86.2% | Activity (A549 [32]): Dose-dependent effect | Activity (A549 [33]): Active | Activity (A549 [34]): Active | Activity (A549 [35]): Active | Activity (Homo sapiens): Active | Activity (A549 [36]): Active | Activity [37]: Active | Activity (A549 [38]): 0.6% | Activity (A549 [39]): 48.4% | Activity (A549 [40]): 17.4% | Activity (A549 [41]): 33.5% | Activity (A549 [42]): Active | Activity (A549 [43]): 5.83% | Activity (A549 [44]): 75.9% | Activity (A549 [45]): 16.7% | Activity (A549 [46]): 1.62% | Activity (A549 [47]): Active | Activity (A549 [48]): Active

Cn1cnc(C(=O)NNC(=O)COc2ccc(C(=O)c3ccccc3)cc2)c1
IC50 (A549 [1]): 29.6 µM | IC50 (A549 [2]): 30.6 µM | IC50 (A549 [3]): 31.6 µM | IC50 (HeLa [4]): 33.2 µM | IC50 (HeLa [5]): 32.9 µM | IC50 (HeLa [6]): 31.9 µM | IC50 (MCF7 [7]): 29.6 µM | IC50 (MCF7 [8]): 30.6 µM | IC50 (MCF7 [9]): 31.6 µM | IC50 (NIH3T3 [10]): 98.8 µM | IC50 (NIH3T3 [11]): 96.9 µM | IC50 (NIH3T3 [12]): 97.4 µM

O=C(COc1c(F)cc(C(=O)c2ccc(F)cc2)cc1Cl)NNC(=O)c1ccc(=O)oc1
IC50 (A549 [1]): 56.7 µM | IC50 (A549 [2]): 58.8 µM | IC50 (A549 [3]): 60.2 µM | IC50 (HeLa [4]): 59.2 µM | IC50 (HeLa [5]): 59.9 µM | IC50 (HeLa [6]): 60.1 µM | IC50 (MCF7 [7]): 62.2 µM | IC50 (MCF7 [8]): 63.2 µM | IC50 (MCF7 [9]): 61.1 µM | IC50 (NIH3T3 [10]): 85.4 µM | IC50 (NIH3T3 [11]): 87.8 µM | IC50 (NIH3T3 [12]): 89.8 µM
